Structures can show the parent of a compound that is named as a salt.
Key:
[1] = target: T1, phosphorylated EGFR (pEGFR) (Homo sapiens, UniProt P00533); experiment: Detection of phosphorylated EGFR (pEGFR) in EGF-stimulated A431 cells (AlphaLISA); type: cell-based; details: A431 cells (10% FBS), 4 hours incubation, EGF 30 ng/mL for 10 minutes
T1 construct: performed to measure phosphorylated EGFR levels using A431 cells; endogenous in cells; host or cells: A431
Experimental: Enzyme-linked immunosorbent assays (ELISA) were performed to measure phosphorylated EGFR levels using A431 cells (10% FBS). A431 (1.0*10^4 cells/40 μl/well) cells were seeded in 384 well. Compounds were dissolved in DMSO, serially diluted in DMSO and then were added, mixed, and incubated for 4 hours at 37° C., 5% CO2. Following the 4-hours incubation, cells were stimulated for 10 minutes with EGF (Invitrogen, cat #PHG0311) at a final concentration of 30 ng/mL in the incubator. The media was aspirated and cells were lysed in 10 μL lysis buffer with protease and phosphatase inhibitors (PerkinElmer, cat #ALSU-PEGFR-A50K). The plates were placed on a shaker for 5 minutes and then incubated for 30 min at 4° C. for complete lysis. The lysate was transferred to an Optiplate (Perkin Elmer, cat #6007290).
Acceptor mix (PerkinElmer, cat #ALSU-PEGFR-A50K) was prepared just before use and 5 μL was dispensed to all the wells, followed by a 1.5-2 h incubation at room temperature in dark. The donor mix (PerkinElmer, cat #ALSU-PEGFR-A50K) was prepared under low light conditions prior to use and 5 μl of donor mix was added to all the wells under subdued lighting or green filters. The plates were placed on a shaker for 5 min, sealed, and incubated overnight at room temperature in dark. Plates were read on the Envision (PerkinElmer) using standard AlphaLISA settings.
The percentage of inhibition on EGFR phosphorylation was calculated following equation: % Inhibition=100×(LumHC−LumSample)/(LumHC−LumLC). The low and high controls (LC/HC) are generated from lysate from wells with cells treated with DMSO or […] Staurosporine (BioAustralis, cat #BIA-S1086), […]. IC50 values were calculated by fitting the Curve using XLfit (v5.3.1.3), equation 201: Y=Bottom+ (Top−Bottom)/(1+10^((LogIC50−X)*HillSlope)).

Ba/F3 ERBB2 YVMA = Ba/F3 ERBB2 YVMA (Homo sapiens, UniProt P04626, DUP772-775, cells depend on it); experiment: Cell viability assay (CellTiter Glo) in Ba/F3 cells engineered to express ERBB2 YVMA; type: cell-based, mouse; details: Ba/F3 cells expressing human ERBB2 YVMA mutant, 72 hours, % viability, read-out: Ba/F3 ERBB2 YVMA IC50
Experimental: Cells were treated with compounds, and cell viability was measured as a metric of kinase inhibition.
The Ba/F3 cell line is IL-3-dependent mouse cell line derived from the C3H mouse strain. Ba/F3 cell lines were engineered to express human ERBB2 or EGFR kinases, rendering the cells IL-3 independent. The lines were generated via retroviral transduction utilizing a Moloney murine leukemia virus (MMLV) promoter, and constructs are stably integrated into the cell genome. The sequences of the ERBB2 and EGFR genes used were NCBI Reference Sequences NM_004448.3 and NM_005228.3, respectively.
Similarly, Ba/F3 cell lines engineered to express EGFR, ERBB2, or ERBB2 mutants were grown, harvested, counted and seeded at 3000 cells per well in 96-well plates for the data sets shown in Tables B3-B4. A subset of wells contained media only (low control, “LC”).
Table B1 provides the growth media and number of cells seeded per well for the each cell line.
Compounds were dissolved in DMSO and serially diluted. Serially-diluted compound or a DMSO only control (high control, “HC”) was added to the plated cells in each well. […] The final proportion of DMSO never exceeded 0.1%.
Plates were placed in a 37° C., 5% CO2 incubator for 72 hours. Plates were then removed from the incubator and equilibrated for 15 minutes at room temperature. 40 μl of CellTiter Glo reagent (Promega) was added to measure the relative level of metabolically active cells by quantifying intracellular ATP concentrations. Plates were incubated for 30 minutes at room temperature, and luminescence was measured. Percent viability was normalized to a vehicle control only using the following formula: % viability=100×(Lumsample−LumLC)/(LumHC−LumLC). Graphical curves were fitted using a nonlinear regression model with a sigmoidal dose response.

[2] = target: T2, phosphorylated ERBB2 (pERBB2) (Homo sapiens, UniProt P04626); experiment: Detection of phosphorylated ERBB2 (pERBB2) by ELISA in BT-474 cells; type: cell-based; details: four hour incubation with compound
T2 construct: endogenous in cells; host or cells: BT-474
Experimental: BT-474 cells were seeded into a 96-well at 2.0*10^4 cells/100 μl/well. Compounds were dissolved and serially diluted in DMSO. The compounds were then were added, mixed, and incubated for four hours at 37° C., 5% CO2. Compounds were added using four-fold dilutions at final concentrations ranging from 10 μM to 0.01 nM. Following the four hour incubation with compounds, cell lysates were prepared. Plates were centrifuged for 5 min at 3000 RPM, and supernatant was removed from each well. Cells were washed 3 times by resuspension in 150 μl PBS, followed by centrifugation and removal of the supernatant, as above. […] Cells were incubated with lysis buffer for 1 hour at 4° C., and then stored at -80° C. Enzyme-linked immunosorbent assays (ELISA) were performed to measure phosphorylated ERBB2 levels. […] The next day, plates were washed with PBS+0.05% Tween20 (PBST). 150 μl of 5% BSA blocking solution was added for 1 hour at room temperature, with shaking. Plates were washed with PBST. Cell lysates were thawed and 100 μl of lysate was added to the ELISA plate. The plates were incubated for 2 hours at room temperature, with shaking. […] Plates were incubated for 1 hour at room temperature, with shaking. Plates were then washed with PBST, and 100 μl TMB substrate solution (R&D Systems, cat #DY999) was added. Plate were incubated in the dark for 20 minutes at room temperature. 50 μl of Stop solution (R&D Systems, cat #DY994) (50 μl) was added to each well and mixed. Optical density at 450 nm was read on an EnSpire plate reader (Perkin Elmer). The remaining kinase activity by calculated using the following formula: % Relative activity=100×([…]). The low and high control values (“LC” and “HC”) were generated from lysate from wells without cells or with cells treated with 0.1% DMSO, respectively.

T1 sequence (P00533 25-1210): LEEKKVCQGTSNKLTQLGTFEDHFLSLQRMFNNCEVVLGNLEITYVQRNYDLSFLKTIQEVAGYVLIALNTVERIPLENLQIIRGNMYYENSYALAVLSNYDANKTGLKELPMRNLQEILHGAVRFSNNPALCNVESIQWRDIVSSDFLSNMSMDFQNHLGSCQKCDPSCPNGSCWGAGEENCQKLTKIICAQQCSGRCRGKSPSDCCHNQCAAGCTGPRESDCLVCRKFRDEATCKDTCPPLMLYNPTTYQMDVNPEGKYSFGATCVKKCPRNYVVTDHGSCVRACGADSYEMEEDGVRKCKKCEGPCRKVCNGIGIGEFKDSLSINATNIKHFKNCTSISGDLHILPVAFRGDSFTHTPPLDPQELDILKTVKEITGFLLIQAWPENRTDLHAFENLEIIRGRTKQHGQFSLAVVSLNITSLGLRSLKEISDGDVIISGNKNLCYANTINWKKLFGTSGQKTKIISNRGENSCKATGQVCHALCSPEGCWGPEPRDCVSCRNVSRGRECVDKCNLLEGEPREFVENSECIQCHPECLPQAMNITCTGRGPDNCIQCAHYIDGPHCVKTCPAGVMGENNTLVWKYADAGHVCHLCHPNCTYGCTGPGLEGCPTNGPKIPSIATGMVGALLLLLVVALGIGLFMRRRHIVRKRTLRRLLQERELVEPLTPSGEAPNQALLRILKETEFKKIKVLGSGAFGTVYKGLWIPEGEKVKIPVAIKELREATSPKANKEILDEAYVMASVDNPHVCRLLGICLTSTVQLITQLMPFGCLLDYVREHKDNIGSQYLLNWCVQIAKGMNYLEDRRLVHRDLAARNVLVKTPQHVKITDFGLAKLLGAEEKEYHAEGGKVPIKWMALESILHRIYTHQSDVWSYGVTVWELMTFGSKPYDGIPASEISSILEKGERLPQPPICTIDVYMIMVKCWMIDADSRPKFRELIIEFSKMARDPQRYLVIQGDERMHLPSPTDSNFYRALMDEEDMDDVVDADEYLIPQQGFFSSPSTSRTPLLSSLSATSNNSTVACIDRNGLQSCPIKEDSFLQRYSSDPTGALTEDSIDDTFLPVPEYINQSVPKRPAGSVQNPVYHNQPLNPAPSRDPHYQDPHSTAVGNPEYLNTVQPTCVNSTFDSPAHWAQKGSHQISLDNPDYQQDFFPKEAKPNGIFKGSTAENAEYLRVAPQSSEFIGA
Sequence of Ba/F3 ERBB2 YVMA (P04626 with tags, fused parts or gaps DUP772-775): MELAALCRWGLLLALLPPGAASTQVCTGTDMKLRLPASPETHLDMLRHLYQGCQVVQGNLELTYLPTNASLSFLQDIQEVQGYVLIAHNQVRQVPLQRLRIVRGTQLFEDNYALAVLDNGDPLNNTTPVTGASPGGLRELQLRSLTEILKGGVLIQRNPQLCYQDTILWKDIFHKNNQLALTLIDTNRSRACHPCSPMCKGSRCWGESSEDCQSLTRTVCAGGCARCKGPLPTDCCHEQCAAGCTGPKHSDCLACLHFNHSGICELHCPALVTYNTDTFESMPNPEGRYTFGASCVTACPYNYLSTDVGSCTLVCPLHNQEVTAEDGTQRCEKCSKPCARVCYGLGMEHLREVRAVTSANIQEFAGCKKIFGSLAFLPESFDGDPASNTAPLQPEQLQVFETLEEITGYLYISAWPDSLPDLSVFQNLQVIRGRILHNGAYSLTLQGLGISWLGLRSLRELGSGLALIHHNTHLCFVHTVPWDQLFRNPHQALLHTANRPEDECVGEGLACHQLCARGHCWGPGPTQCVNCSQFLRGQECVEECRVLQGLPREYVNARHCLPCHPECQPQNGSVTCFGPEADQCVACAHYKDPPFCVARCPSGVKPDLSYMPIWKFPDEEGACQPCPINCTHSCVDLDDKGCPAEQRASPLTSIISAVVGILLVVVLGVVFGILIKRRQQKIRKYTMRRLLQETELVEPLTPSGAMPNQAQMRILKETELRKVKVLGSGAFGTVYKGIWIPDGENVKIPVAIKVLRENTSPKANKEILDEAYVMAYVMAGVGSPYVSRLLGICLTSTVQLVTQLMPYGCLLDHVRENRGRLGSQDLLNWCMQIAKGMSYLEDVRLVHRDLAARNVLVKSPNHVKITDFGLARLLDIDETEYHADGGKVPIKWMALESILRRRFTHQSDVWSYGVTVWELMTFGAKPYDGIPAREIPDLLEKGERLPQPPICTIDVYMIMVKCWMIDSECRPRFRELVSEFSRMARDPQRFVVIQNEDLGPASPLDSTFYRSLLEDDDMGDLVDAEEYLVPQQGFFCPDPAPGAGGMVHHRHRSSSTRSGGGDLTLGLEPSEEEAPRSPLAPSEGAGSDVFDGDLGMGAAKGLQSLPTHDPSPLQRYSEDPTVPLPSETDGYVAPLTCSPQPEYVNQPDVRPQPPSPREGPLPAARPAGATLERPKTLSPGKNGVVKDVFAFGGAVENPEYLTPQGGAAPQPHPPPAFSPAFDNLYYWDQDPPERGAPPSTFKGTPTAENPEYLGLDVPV
T2 sequence (P04626 23-1255): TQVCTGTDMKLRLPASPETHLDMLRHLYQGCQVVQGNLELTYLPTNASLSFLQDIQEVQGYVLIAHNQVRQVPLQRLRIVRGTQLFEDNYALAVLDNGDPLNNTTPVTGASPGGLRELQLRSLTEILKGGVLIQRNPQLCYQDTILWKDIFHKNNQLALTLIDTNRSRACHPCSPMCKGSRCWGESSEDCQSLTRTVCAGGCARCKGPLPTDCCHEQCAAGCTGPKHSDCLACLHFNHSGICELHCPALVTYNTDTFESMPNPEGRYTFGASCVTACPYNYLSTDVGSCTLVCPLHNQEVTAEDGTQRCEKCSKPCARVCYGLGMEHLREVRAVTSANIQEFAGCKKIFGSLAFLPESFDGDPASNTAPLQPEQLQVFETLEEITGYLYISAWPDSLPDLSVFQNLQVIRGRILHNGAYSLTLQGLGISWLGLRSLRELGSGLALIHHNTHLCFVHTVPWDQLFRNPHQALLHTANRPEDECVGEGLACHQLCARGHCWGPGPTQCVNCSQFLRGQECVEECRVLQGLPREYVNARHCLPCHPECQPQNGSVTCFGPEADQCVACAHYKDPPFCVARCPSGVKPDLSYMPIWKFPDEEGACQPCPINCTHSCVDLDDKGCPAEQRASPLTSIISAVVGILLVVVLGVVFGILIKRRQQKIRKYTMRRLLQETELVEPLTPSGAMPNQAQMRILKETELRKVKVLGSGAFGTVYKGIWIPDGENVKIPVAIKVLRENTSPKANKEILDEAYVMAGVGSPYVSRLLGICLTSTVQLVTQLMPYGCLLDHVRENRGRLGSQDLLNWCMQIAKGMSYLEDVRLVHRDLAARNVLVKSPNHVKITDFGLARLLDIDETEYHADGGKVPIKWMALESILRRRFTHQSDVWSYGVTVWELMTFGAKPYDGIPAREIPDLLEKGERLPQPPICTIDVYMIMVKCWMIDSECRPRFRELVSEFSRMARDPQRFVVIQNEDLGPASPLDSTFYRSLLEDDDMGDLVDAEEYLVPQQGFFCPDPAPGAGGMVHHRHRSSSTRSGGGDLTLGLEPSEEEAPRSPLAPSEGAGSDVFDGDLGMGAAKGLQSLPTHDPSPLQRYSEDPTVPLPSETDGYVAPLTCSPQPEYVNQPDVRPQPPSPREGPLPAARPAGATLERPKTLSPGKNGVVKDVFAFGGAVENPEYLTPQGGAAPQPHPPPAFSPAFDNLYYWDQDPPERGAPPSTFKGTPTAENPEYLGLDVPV

| Compound | IC50 [1] | GI50 (Ba/F3 ERBB2 YVMA) | IC50 [2] |
| --- | --- | --- | --- |
| C=CC(=O)N1CCC2(C1)CN(c1ccc3ncnc(Nc4ccc(Oc5ccn6ncnc6c5)c(C)c4)c3n1)C2 [Compound 21, 1-(2-{4-[(3-methyl-4-{[1,2,4]triazolo[1,5-a]pyridin-7-yloxy}phenyl)amino]pyrido[3,2-d]pyrimidin-6-yl}-2,6-diazaspiro[3.4]octan-6-yl)prop-2-en-1-one] | 9.42 µM | 0.00976 µM | 0.0121 µM |
| C=CC(=O)N1CCN(c2ccc3ncnc(Nc4ccc(Oc5ccn6ncnc6c5)c(C)c4)c3c2)C[C@H]1C [Compound 35, 1-[(2R)-2-methyl-4-{4-[(3-methyl-4-{[1,2,4]triazolo[1,5-a]pyridin-7-yloxy}phenyl)amino]quinazolin-6-yl}piperazin-1-yl]prop-2-en-1-one] | 0.823 µM | 0.00788 µM | 0.0136 µM |
| C=CC(=O)N1CCCN(c2ccc3ncnc(Nc4ccc(Oc5ccn6ncnc6c5)c(C)c4)c3n2)CC1 [Compound 16, 1-(4-{4-[(3-methyl-4-{[1,2,4]triazolo[1,5-a]pyridin-7-yloxy}phenyl)amino]pyrido[3,2-d]pyrimidin-6-yl}-1,4-diazepan-1-yl)prop-2-en-1-one] | 8.01 µM | 0.0995 µM | 0.0306 µM |
| C=CC(=O)N1CC2CC(C1)N2c1ccc2ncnc(Nc3ccc(Oc4ccn5ncnc5c4)c(C)c3)c2n1 [Compound 5, 1-(6-{4-[(3-methyl-4-{[1,2,4]triazolo[1,5-a]pyridin-7-yloxy}phenyl)amino]pyrido[3,2-d]pyrimidin-6-yl}-3,6-diazabicyclo[3.1.1]heptan-3-yl)prop-2-en-1-one] | 0.476 µM | 0.018 µM | 0.017 µM |
| C=CC(=O)N1CCN(c2ccc3ncnc(Nc4ccc(Oc5ccc6c(c5)ncn6C)c(C)c4)c3c2F)C[C@H]1C [Compound 64, 1-[(2R)-4-[5-fluoro-4-({3-methyl-4-[(1-methyl-1,3-benzodiazol-5-yl)oxy]phenyl}amino)quinazolin-6-yl]-2-methylpiperazin-1-yl]prop-2-en-1-one] | 2.52 µM | 0.0124 µM | 0.0386 µM |
| C=CC(=O)N1CCN(c2ncc3ncnc(Nc4ccc(Oc5ccc6c(c5)ncn6C)c(C)c4)c3n2)CC1 [Compound 130, 1-(4-(8-((3-methyl-4-((1-methyl-1H-benzo[d]imidazol-5-yl)oxy)phenyl)amino)pyrimido[5,4-d]pyrimidin-2-yl)piperazin-1-yl)prop-2-en-1-one] | 1.48 µM | 0.015 µM | 0.013 µM |
| Cc1cc(Nc2ncnc3ccc(N4CCN(C(=O)/C=C/CN(C)C)[C@H](C)C4)c(F)c23)ccc1Cc1ccn2ncnc2c1 [Compound 93, (2E)-4-(dimethylamino)-1-[(2R)-4-{5-fluoro-4-[(3-methyl-4-{[1,2,4]triazolo[1,5-a]pyridin-7-ylmethyl}phenyl)amino]quinazolin-6-yl}-2-methylpiperazin-1-yl]but-2-en-1-one formate] | > 10 µM | 0.049 µM | 0.0307 µM |
| Cc1cc(Nc2ncnc3cnc(N4CCN(C(=O)/C=C/CN(C)C)[C@H](C)C4)nc23)ccc1Cc1ccn2ncnc2c1 [Compound 122, (R,E)-1-(4-(8-((4-([1,2,4]triazolo[1,5-a]pyridin-7-ylmethyl)-3-methylphenyl)amino)pyrimido[5,4-d]pyrimidin-2-yl)-2-methylpiperazin-1-yl)-4-(dimethylamino)but-2-en-1-one] | > 10 µM | 0.0324 µM | 0.0532 µM |
| CC#CC(=O)N1CCN(c2ccc3ncnc(Nc4ccc(Oc5ccc6c(c5)ncn6C)c(C)c4)c3n2)C[C@H]1C [Compound 65, 1-[(2R)-2-methyl-4-[4-({3-methyl-4-[(1-methyl-1,3-benzodiazol-5-yl)oxy]phenyl}amino)pyrido[3,2-d]pyrimidin-6-yl]piperazin-1-yl]but-2-yn-1-one] | 2.79 µM | 0.00438 µM | 0.0293 µM |
| CC#CC(=O)N1CCN(c2ccc3ncnc(Nc4ccc(Oc5ccc6c(c5)ncn6C)c(C)c4)c3n2)CC1 [Compound 31, 1-{4-[4-({3-methyl-4-[(1-methyl-1,3-benzodiazol-5-yl)oxy]phenyl}amino)pyrido[3,2-d]pyrimidin-6-yl]piperazin-1-yl}but-2-yn-1-one] | 7.64 µM | 0.00656 µM | 0.029 µM |
| C=CC(=O)N1CC[C@H](Oc2ccc3ncnc(Nc4ccc(Oc5ccc6c(c5)ncn6C)c(C)c4)c3n2)C1 [Compound 49, 1-[(3S)-3-{[4-({3-methyl-4-[(1-methyl-1,3-benzodiazol-5-yl)oxy]phenyl}amino)pyrido[3,2-d]pyrimidin-6-yl]oxy}pyrrolidin-1-yl]prop-2-en-1-one] | 0.346 µM | 0.0157 µM | 0.0569 µM |
| Cc1cc(Nc2ncnc3ccc(N4CCN(C(=O)/C=C/CN(C)C)[C@H](C)C4)nc23)ccc1Cc1ccc2c(c1)ncn2C [Compound 121, (R,E)-4-(dimethylamino)-1-(2-methyl-4-(4-((3-methyl-4-((1-methyl-1H-benzo[d]imidazol-5-yl)methyl)phenyl)amino)pyrido[3,2-d]pyrimidin-6-yl)piperazin-1-yl)but-2-en-1-one] | 6.74 µM | 0.00908 µM | 0.0559 µM |
| Cc1cc(Nc2ncnc3ccc(N4CCN(C(=O)/C=C/CN(C)C)CC4C)c(F)c23)ccc1Cc1ccn2ncnc2c1 (stereo not drawn) [Compound 94, (E)-1-(4-(4-((4-([1,2,4]triazolo[1,5-a]pyridin-7-ylmethyl)-3-methylphenyl)amino)-5-fluoroquinazolin-6-yl)-3-methylpiperazin-1-yl)-4-(dimethylamino)but-2-en-1-one] | > 10 µM | > 0.5 µM | 0.16 µM |
| C=CC(=O)N1CC[C@@H](Oc2ccc3ncnc(Nc4ccc(Oc5ccn6ncnc6c5)c(C)c4)c3c2)C1 [Compound 36, (R)-1-(3-((4-((4-([1,2,4]triazolo[1,5-a]pyridin-7-yloxy)-3-methylphenyl)amino)quinazolin-6-yl)oxy)pyrrolidin-1-yl)prop-2-en-1-one] | > 10 µM | 0.0987 µM | 0.0178 µM |

From patent US20250136595A1, “ACYLATED HETEROCYCLIC QUINAZOLINE DERIVATIVES AS INHIBITORS OF ERBB2” (Enliven Inc., priority 2022, published 2025)
